System: ProcM
Assay: ProcM reactions with other
Format: biochemical, Prochlorococcus MIT9313
Details: preliminary; data not shown

**Q.** For “ProcA4.3: ProcA substrate (TASGGCDTSMFCY; UniProt Q7V735 65-77, looked up)”, which cyclization kinetics is on record?
**A.** some thioether rings form quickly, while others require a much longer time
